# Reference: PMC6219699 (Nuclear medicine communications, 2011)
# Biological target: T1, human sodium/iodide symporter (hNIS) (Homo sapiens, UniProt Q92911)
# T1 sequence (Q92911 1-643): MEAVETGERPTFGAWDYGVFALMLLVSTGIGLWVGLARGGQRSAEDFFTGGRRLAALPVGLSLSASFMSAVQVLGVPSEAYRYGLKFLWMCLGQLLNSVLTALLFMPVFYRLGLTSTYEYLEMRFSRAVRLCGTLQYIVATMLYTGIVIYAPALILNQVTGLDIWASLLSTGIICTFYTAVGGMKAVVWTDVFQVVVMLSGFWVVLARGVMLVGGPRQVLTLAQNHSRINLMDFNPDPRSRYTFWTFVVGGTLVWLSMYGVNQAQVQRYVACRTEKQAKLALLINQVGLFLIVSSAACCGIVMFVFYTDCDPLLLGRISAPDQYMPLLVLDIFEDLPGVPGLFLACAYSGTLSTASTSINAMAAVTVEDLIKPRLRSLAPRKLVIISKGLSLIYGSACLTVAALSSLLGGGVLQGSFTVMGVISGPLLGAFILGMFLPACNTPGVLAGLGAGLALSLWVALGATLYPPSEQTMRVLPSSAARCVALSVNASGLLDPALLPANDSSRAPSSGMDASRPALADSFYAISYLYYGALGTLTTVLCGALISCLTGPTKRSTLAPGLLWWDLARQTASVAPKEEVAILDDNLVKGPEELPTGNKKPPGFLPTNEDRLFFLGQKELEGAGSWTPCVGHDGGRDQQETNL
# Assay type: cell-based
smiles,measurement,value
F[B-](F)(F)F [tetrafluoroborate],IC50,740 nM
